Experimental findings from article PMC12624743 (ACS Infectious Diseases, 2025) are described below.

The structures appear in SMILES notation. Positions count from the first letter of the chain named. pIC50: −log10 of the molar value.

Assay [1] addresses T1, N. gonorrhoeae topoisomerase IV ParC^S88P (Neisseria gonorrhoeae, UniProt P48374, S88P).
T1 sequence (P48374 1-768 S88P): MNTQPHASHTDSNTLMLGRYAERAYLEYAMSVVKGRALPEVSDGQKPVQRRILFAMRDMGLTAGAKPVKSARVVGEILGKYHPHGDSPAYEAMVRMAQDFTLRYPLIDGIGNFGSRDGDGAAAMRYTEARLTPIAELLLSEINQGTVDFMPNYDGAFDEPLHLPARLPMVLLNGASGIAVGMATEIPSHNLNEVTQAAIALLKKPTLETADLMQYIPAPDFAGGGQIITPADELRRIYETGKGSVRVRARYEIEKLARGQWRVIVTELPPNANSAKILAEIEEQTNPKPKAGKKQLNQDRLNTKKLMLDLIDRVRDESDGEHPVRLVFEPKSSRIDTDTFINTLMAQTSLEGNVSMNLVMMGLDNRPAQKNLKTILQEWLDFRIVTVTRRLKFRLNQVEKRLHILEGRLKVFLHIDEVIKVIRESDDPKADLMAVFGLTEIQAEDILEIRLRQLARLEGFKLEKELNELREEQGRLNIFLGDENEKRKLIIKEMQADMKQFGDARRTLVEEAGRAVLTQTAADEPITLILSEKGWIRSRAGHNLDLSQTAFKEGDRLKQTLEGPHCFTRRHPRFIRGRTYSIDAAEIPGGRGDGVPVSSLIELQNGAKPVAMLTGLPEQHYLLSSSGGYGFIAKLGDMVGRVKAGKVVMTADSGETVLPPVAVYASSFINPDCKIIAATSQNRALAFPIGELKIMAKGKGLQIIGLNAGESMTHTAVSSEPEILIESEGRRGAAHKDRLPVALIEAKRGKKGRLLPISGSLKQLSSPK
Briefly: Topoisomerase IV-catalyzed DNA decatenation assay, ParC^S88P. In kind it is biochemical. Also on record: His; made in house. The protocol: (§1) All proteins were His-tagged. N. gonorrhoeae WT gyrase (GyrA, GyrB) and topoisomerase IV (ParC, ParE) subunits as well as mutant GyrA^D90N, GyrA^A92T, GyrA^S91F, and GyrA^S91F/D95G gyrase and ParC^D86N and ParC^S88P topoisomerase IV were prepared as described previously. , N. gonorrhoeae mutant GyrA^D95G gyrase and mutant ParC^S87N and ParC^E91G topoisomerase IV were generated using a QuickChange II XL site-directed mutagenesis kit (Agilent Technologies) with custom primers for the desired mutations. Mutant N. gonorrhoeae GyrA and ParC subunits were expressed and purified as described by Ashley et al. with the following modifications to optimize protein expression and lysis: (1) GyrA^D95G was expressed for 2.5 h and ParC^S87N and ParC^E91G were expressed for 3 h before harvesting, and (2) cells were lysed by sonication using a digital sonifier (Branson). The identities of all constructs were confirmed by DNA sequencing, and all enzymes were stored at −80 °C. In all assays, N. gonorrhoeae gyrase or topoisomerase IV was used as a 1:1 GyrA:GyrB or ParC:ParE mixture, respectively, and the stated enzyme concentration reflects that of the holoenzyme (A2B2). […]

Assay [2] addresses T2, N. gonorrhoeae topoisomerase IV ParC^D86N (Neisseria gonorrhoeae, UniProt P48374, D86N).
T2 construct: His; made in house
T2 sequence (P48374 1-768 D86N): T1 sequence (P48374 1-768 S88P) with D86N, P88S
The experiment in a line: Topoisomerase IV-catalyzed DNA decatenation assay, ParC^D86N. In kind it is biochemical. The method, then:
as §1

A word on the pIC50: it is −log10 of the IC50, conventionally taken in molar units. With `O=c1ccc2ncc(=O)n3c2n1C[C@H]3CN1CCC(NCc2cc3c(cn2)OCCC3)CC1` [gepotidacin], the pIC50 in assay [1] was 5.92; in assay [2] (ParC D86N topoisomerase IV, read-out: IC50, inhibition of DNA decatenation) it was less than 3.70. For the same compound, the “effect of mutation on gepotidacin susceptibility in decatenation assays” value in assay [1] (ParC S88P vs WT) is recorded as “no effect”. The “inhibition of DNA decatenation” value in assay [2] (ParC D86N, gepotidacin concentrations as high as 200 μM) is given as “no inhibition”.
